Laboratory results published in publication PMC6754100 (Journal of the American Chemical Society, 2019).
Where a name gives a salt, the structure may show the parent alone.

Biological target: T1, human ornithine aminotransferase (hOAT) (Homo sapiens, UniProt P04181)
T1 sequence (P04181 26-439): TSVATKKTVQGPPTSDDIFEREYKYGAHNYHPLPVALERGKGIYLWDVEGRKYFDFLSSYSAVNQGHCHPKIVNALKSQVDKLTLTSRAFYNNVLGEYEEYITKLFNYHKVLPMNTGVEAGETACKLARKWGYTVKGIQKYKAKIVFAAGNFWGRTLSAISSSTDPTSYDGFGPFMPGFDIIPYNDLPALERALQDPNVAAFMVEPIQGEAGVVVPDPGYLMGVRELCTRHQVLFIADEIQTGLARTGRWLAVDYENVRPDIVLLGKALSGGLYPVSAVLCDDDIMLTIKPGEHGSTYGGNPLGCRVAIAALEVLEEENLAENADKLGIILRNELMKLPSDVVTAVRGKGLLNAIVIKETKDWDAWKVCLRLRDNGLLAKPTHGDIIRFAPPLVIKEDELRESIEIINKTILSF
Experiment: […] Å crystal structure of the inactivated enzyme
Type: biochemical
Details: read-out: Ki

A KI (inactivation) of 54 µM was found for `N[C@H]1C[C@@H](C(=O)O)CC1=C(C(F)(F)F)C(F)(F)F` [compound 1, (1S,3S)-3-amino-4-(perfluoropropan-2-ylidene)cyclopentane-1-carboxylic acid hydrochloride] in this work.
